The source made the active and inactive calls. The calls are words filed in the database; no cut-off is given here.
Legend:
[1] = Agonist activity at LXR; type: functional
[2] = Inhibition of Saccharomyces sp. alpha-glucosidase
[3] = molecular target: T1, Oxysterols receptor LXR-beta (Homo sapiens, UniProt P55055); test: Antagonist activity at human recombinant LXRbeta expressed in HEK293 cells by luciferase reporter gene assay; type: functional, cell-based
T1 sequence (P55055 whole entry): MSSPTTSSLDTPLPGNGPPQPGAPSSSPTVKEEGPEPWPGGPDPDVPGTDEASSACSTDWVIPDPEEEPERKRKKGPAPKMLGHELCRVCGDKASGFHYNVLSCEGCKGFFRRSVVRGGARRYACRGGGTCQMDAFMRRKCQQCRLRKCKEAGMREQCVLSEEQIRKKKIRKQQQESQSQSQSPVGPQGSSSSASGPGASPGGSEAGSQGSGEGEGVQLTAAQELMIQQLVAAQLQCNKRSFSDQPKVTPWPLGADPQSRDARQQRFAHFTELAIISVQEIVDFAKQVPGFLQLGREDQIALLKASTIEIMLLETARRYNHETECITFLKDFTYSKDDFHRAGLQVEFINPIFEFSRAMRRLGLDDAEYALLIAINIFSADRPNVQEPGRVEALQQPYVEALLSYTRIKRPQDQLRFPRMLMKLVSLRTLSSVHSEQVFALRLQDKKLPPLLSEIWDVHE

[4] = molecular target: T2, Oxysterols receptor LXR-alpha (Homo sapiens, UniProt Q13133); test: Antagonist activity at human recombinant LXRalpha expressed in HEK293 cells by luciferase reporter gene assay; type: functional, cell-based
T2 sequence (Q13133 whole entry): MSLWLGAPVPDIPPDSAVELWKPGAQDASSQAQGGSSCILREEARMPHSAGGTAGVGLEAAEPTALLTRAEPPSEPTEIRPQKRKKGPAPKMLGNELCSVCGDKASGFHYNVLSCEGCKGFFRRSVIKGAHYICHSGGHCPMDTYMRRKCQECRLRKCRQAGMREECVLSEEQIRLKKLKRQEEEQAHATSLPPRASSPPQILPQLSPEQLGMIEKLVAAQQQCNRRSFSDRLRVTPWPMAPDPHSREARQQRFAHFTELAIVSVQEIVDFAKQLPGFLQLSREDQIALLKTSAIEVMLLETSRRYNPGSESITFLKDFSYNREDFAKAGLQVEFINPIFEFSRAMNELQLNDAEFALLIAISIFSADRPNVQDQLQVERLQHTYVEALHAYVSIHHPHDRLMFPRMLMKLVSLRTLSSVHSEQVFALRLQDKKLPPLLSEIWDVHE

SMILES	Activity [1]	IC50 [2] [µM]	IC50 [3] [µM]	IC50 [4] [µM]
Oc1cc2ccc1-c1ccccc1CCc1ccc(cc1)Oc1cccc(c1)CC2	inactive	19	7.3	3.2
O=c1c(-c2ccc(O)cc2)coc2cc(O)cc(O)c12 [GENISTEIN]	inactive	100	22	31
CCCCCCc1ccccc1N1C(=O)c2ccccc2C1=O	inactive	24.7		
CC(C)c1cccc(C(C)C)c1N1C(=O)c2ccccc2C1=S	inactive	8	18	3.1
Oc1ccc2cc1Oc1ccc(cc1)CCc1ccccc1-c1ccc(cc1)CC2	inactive	15	14	5.7
COc1ccc2c(c1)CCc1ccc(cc1)Oc1cc(ccc1OC)CCc1ccc-2cc1	inactive	40	26	3.6
Oc1ccc2c(c1)CCc1ccc(cc1)Oc1cc(ccc1O)CCc1ccc-2cc1	inactive	4.9	7.6	4.4
O=S(=O)(c1ccccc1)N(CC(F)(F)F)c1ccc(C(O)(C(F)(F)F)C(F)(F)F)cc1 [T091317]	inactive	100		
Oc1ccc2c(c1)CCc1ccc(cc1)Oc1cccc(c1)CCc1ccc-2c(O)c1	inactive	5.1	10	8.4
COc1ccc2c(c1)CCc1ccc(cc1)Oc1cccc(c1)CCc1ccc-2c(OC)c1	inactive	> 30	46	25
COc1ccc2cc1Oc1ccc(cc1)CCc1ccccc1-c1ccc(cc1)CC2	inactive	> 100	41	7.6
O=C1c2ccccc2C(=O)N1c1ccccc1CCc1ccccc1	inactive	16.2		
CC(C)CC[C@@H](O)[C@@H](C)[C@H]1CC[C@H]2[C@@H]3CC=C4C[C@@H](O)CC[C@]4(C)[C@H]3CC[C@]12C [22(R)-HYDROXYCHOLESTEROL]	inactive	100		
COc1cc2ccc1-c1ccccc1CCc1ccc(cc1)Oc1cccc(c1)CC2	inactive	67	11	2.5
O=C(O)Cc1cccc(OCCCN(Cc2cccc(C(F)(F)F)c2Cl)CC(c2ccccc2)c2ccccc2)c1	inactive	4.8		
COc1ccc2c(c1)CCc1ccc(cc1)Oc1cc(ccc1OC)CCc1ccc-2c(OC)c1	inactive	49	14	2
Oc1ccc2cc1Oc1ccc(cc1)CCc1ccccc1-c1ccc(cc1O)CC2	inactive	8.6	13	6.6
c1cc2cc(c1)Oc1ccc(cc1)CCc1ccccc1-c1ccc(cc1)CC2 [DEOXYRICCARDIN C]	inactive	18	77	7.1
OC[C@H]1NC[C@H](O)[C@@H](O)[C@@H]1O [DUVOGLUSTAT]	inactive	250	> 100	> 100
COc1ccc2cc1Oc1ccc(cc1)CCc1ccccc1-c1ccc(cc1OC)CC2	inactive	42	12	2.2
Oc1ccc2c(c1)CCc1ccc(cc1)Oc1cc(ccc1O)CCc1ccc-2c(O)c1 [RICCARDI C]	inactive	9.9	6.6	4.9

— ChEMBL document CHEMBL1144755, “Co-existence of alpha-glucosidase-inhibitory and liver X receptor-regulatory activities and their separation by structural development” (Bioorg Med Chem, 2008)
